US20130165489A1, “Small Molecule Modulators of HIV-1 Capsid Stability and Methods Thereof” (The Trustees of the University of Pennsylvania, priority 2010, published 2013)

Experiments:
in vitro = conditions: African green monkey
mutant HIV-1 CA proteins = assay: Binding site analysis via SPR, mutant CA proteins; conditions: alanine mutants of residues 137 and R173, 27.5 μM
Description: Wild-type and mutant HIV-1 CA proteins were attached to the surface by standard amine chemistry as described above. Compound CMPD-E was injected over these surfaces at a concentration of 27.5 μM at a flow rate of 50 μL min^−1, for a 2-min association phase, followed by a 5-min dissociation phase, and the response at equilibrium recorded. For comparison, and to take into account minor differences in the ligand density of the mutant surfaces, responses were normalized to the theoretical Rmax, assuming a 2:1 interaction.
Data analysis was performed using BIAEvaluation 4.0 software. The responses of a buffer injection and responses from the reference flow cell were subtracted to account for nonspecific binding. In order to obtain the equilibrium dissociation constants (KD), experimental data were fitted globally to the heterogeneous ligand model. The average parameters generated from a minimum of 4 data sets were used to define the equilibrium dissociation constants (KD1 and KD2). In the mutant CA protein studies, the average maximum response was generated from a minimum of 6 data sets and was used to define the average maximum response for compound CMPD-E binding to wild-type and mutant HIV-1 CA proteins.

[1] = system: HIV-1 89BZ167 (subtype B clinical isolate); assay: Anti-HIV efficacy in human PBMCs, isolate 89BZ167; type: cell-based
Description: (§1) HIV human peripheral blood mononuclear cell (PBMC) assays were performed as described previously (Lanier et al., 2010, Antimicrob. Agents Chemother. 54:2901-09; Ptak et al., 2008, Antimicrob. Agents Chemother. 52:1302-17). Briefly, fresh PBMCs, seronegative for HIV and hepatitis B virus (HBV), were isolated from blood samples of the screened donors (Biological Specialty Corporation, Colmar, Pa.) by using lymphocyte separation medium (LSM; density, 1.078±0.002 g/ml; Cellgro; Mediatech, Inc.) by following the manufacturer's instructions. Cells were stimulated by incubation in 4 μg/mL phytohemagglutinin (PHA; Sigma) for 48 to 72 h. Mitogenic stimulation was maintained by the addition of 20 U/mL recombinant human interleukin-2 (rhIL-2; R&D Systems, Inc.) to the culture medium. PHA-stimulated PBMCs from at least two donors were pooled, diluted in fresh medium, and added to 96-well plates at 5×10^4 cells/well. Cells were infected (final multiplicity of infection [MOI] of ≅0.1) in the presence of 9 different concentrations of test compounds (triplicate wells/concentration) and incubated for 7 days. […] Following removal of supernatant samples, compound cytotoxicity was measured by the addition of 3-(4,5-dimethylthiazol-2-yl)-5-(3-carboxymethoxyphenyl)-2-(4-sulfophenyl)-2H-tetrazolium (MTS; CellTiter 96 reagent; Promega) by following the manufacturer's instructions. […]

[2] = system: HIV-1 92BR025 (subtype C clinical isolate); assay: Anti-HIV efficacy in human PBMCs, isolate 92BR025; type: cell-based
Description: as §1

[3] = system: HIV-1 G3 (subtype G clinical isolate); assay: Anti-HIV efficacy in human PBMCs, isolate G3; type: cell-based
Description: as §1

H1N1 = assay: CPE assay, influenza H1N1; type: cell-based
[4] = system: HIV-1 93BR020 (subtype F clinical isolate); assay: Anti-HIV efficacy in human PBMCs, isolate 93BR020; type: cell-based
Description: as §1

HIV-1NL4-3 CA = HIV-1NL4-3 CA (Human immunodeficiency virus type 1 group M subtype B, UniProt P12493); assay: Isothermal titration calorimetry; type: binding
Description: Isothermal titration calorimetric experiments were performed at 10, 15, and 25° C. using a high-precision ITC200 titration calorimetric system from MicroCal LLC (Northampton, Mass.). All titrations were performed by adding CMPD-E in steps of […]. All solutions contained within the calorimetric cell and injector syringe were prepared in the same buffer, 25 mM Tris-HCl, pH 7.5 with 150 mM NaCl and 3% DMSO. The concentrations of CA and CMPD-E were 35 and 600 μM, respectively. The heat evolved upon injection of CMPD-E was obtained from the integral of the calorimetric signal. The heat associated with the binding reaction was obtained by subtracting the heat of dilution from the heat of reaction. The individual heats were plotted against the molar ratio, and the values for the number of binding sites (n), the enthalpy change (ΔH) and dissociation constant (KD=1/KA) were obtained by nonlinear regression of the data.

[5] = Human immunodeficiency virus 1, PBMC

O=C(O)c1ccc(-c2nc(-c3ccccc3)c(-c3ccccc3)[nH]2)cc1 [CMPD-E, 4-(4,5-diphenyl-1H-imidazol-2-yl)benzoic acid]
CC50 (in vitro): > 100 µM
reduction of binding to mutant CA compared to wild-type CA (mutant HIV-1 CA proteins): > 2 fold
IC50 [1, 5]: 92.9 µM
Antiviral index (TC50/IC50) ([1]; PBMC): >1.08
IC50 [2, 5]: 51 µM
Antiviral index (TC50/IC50) ([2]; PBMC): >1.96
IC50 [3, 5]: 9.03 µM
Antiviral index (TC50/IC50) ([3]; PBMC): >11.1
IC50 (H1N1; Influenza A virus, H1N1, CPE assay): > 100 µM
effect on influenza H1N1 replication (H1N1; up to 100 μM): no inhibitory effects
IC50 [4, 5]: 65.6 µM
Antiviral index (TC50/IC50) ([4]; PBMC): >1.53
Kd (HIV-1NL4-3 CA): 85 µM
change in Gibbs energy (HIV-1NL4-3 CA; ITC, 25° C.): -6.6 kcal/mol
change in enthalpy (ΔH) (HIV-1NL4-3 CA; ITC, 25° C.): -7.3 kcal/mol
change in entropy (ΔS) (HIV-1NL4-3 CA; ITC, 25° C.): −5.0 cal/(K×mol)
heat capacity change (HIV-1NL4-3 CA; from temperature dependence of the enthalpy): −220 cal/(K×mol)
